Columns and labels:
Type in all cases: biochemical
[1] = target: T1, human Lck enzyme (Homo sapiens, UniProt P06239); experiment: Lck enzyme inhibitory activity (time-resolved fluorometry, biotinylated peptide phosphorylation); conditions: biotinylated peptide phosphorylation, read-out: LCK_IC50
T1 construct: purchased Carna Biosciences, Inc. 08-170
Procedure, shortened: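 Readout pairs a europium cryptate-labelled anti-phosphotyrosine antibody with XL665-streptavidin, measured by time-resolved fluorescence. IC50 derived from percent inhibition against untreated controls.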

[2] = target: T2, human Src enzyme (Homo sapiens, UniProt P12931); experiment: Src enzyme inhibitory activity (time-resolved fluorometry, biotinylated peptide phosphorylation); conditions: biotinylated peptide phosphorylation, read-out: SRC_IC50
T2 construct: purchased Carna Biosciences, Inc. 08-173
T2 sequence (P12931 whole entry): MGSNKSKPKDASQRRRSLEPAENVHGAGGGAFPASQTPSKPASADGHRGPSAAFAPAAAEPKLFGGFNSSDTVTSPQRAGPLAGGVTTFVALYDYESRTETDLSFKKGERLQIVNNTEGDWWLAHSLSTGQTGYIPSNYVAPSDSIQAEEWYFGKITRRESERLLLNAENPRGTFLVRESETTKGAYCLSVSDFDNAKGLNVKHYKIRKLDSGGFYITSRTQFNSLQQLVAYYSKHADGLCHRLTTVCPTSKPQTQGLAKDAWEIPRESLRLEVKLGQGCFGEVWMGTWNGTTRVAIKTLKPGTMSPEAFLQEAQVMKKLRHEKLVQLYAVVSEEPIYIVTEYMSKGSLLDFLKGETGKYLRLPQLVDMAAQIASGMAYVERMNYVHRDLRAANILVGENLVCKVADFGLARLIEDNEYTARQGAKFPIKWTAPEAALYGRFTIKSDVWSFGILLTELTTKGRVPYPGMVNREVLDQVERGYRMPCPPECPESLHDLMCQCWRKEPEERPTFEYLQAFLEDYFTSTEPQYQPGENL
Procedure, shortened: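 Compounds were tested for blocking tyrosine phosphorylation of a biotinylated peptide substrate by recombinant human Src. Phosphorylated product was quantified by time-resolved fluorometry using europium cryptate and XL665 conjugates, and IC50 was calculated against the compound-free control.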

[3] = target: T3, human Yes1 enzyme (Homo sapiens, UniProt P07947); experiment: Yes1 enzyme inhibitory activity (time-resolved fluorometry, biotinylated peptide phosphorylation); conditions: biotinylated peptide phosphorylation, read-out: YES_IC50
T3 construct: made in house
T3 sequence (P07947 whole entry): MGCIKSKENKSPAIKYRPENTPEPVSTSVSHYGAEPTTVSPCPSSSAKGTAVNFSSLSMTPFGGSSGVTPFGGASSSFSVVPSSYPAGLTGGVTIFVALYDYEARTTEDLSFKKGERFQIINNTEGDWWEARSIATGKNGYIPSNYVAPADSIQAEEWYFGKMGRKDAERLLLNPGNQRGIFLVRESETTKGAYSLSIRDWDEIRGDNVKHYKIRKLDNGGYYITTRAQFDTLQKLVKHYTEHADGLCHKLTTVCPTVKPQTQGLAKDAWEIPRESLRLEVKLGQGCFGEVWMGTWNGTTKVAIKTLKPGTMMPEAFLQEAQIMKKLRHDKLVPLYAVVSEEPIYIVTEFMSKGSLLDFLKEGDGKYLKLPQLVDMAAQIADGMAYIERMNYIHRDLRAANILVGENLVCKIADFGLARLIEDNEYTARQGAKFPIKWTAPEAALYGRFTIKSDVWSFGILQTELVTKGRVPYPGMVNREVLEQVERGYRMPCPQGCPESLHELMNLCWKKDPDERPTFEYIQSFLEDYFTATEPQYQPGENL
Procedure, shortened: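 Inhibition was expressed against a compound-free control to give IC50, using TR-FRET read-out (Eu-cryptate anti-pTyr antibody, streptavidin-XL665).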

T1 sequence (P06239 whole entry): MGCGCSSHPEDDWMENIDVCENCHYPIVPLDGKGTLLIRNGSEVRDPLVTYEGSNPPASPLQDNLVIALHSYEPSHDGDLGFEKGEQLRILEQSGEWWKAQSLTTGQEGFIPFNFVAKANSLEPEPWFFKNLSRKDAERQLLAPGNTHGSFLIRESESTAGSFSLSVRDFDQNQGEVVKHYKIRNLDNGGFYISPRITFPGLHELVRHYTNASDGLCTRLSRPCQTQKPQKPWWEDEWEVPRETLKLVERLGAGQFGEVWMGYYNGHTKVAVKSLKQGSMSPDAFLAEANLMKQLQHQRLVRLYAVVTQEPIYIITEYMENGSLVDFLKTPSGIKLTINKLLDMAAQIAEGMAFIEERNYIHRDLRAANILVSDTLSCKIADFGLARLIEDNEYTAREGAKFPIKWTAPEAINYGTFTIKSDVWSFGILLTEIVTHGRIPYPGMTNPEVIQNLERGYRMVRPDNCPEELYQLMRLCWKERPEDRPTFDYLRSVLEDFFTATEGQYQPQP

| SMILES | IC50 [1] [µM] | IC50 [2] [µM] | IC50 [3] [µM] |
| --- | --- | --- | --- |
| Cc1cc(Oc2cccc(Cl)c2)ncc1-n1ncc(C(=O)c2cc3cc(F)c(NS(C)(=O)=O)cc3[nH]2)c1N [Example 4-2-037, N-[2-[5-amino-1-[6-(3-chlorophenoxy)-4-methylpyridin-3-yl]pyrazole-4-carbonyl]-5-fluoro-1H-indol-6-yl]methanesulfonamide] | 0.03 | 0.078 | 0.0011 |
| Cc1cc(Oc2cccc(F)c2)ncc1-n1ncc(C(=O)c2cc3cc(F)c(NS(C)(=O)=O)cc3[nH]2)c1N [Example 4-2-038, N-[2-[5-amino-1-[6-(3-fluorophenoxy)-4-methylpyridin-3-yl]pyrazole-4-carbonyl]-5-fluoro-1H-indol-6-yl]methanesulfonamide] | 0.04 | 0.13 | 0.0019 |
| Cc1cc(Oc2ccc(F)cc2)ncc1-n1ncc(C(=O)c2cc3cc(F)c(NS(C)(=O)=O)cc3[nH]2)c1N [Example 4-2-039, N-[2-[5-amino-1-[6-(4-fluorophenoxy)-4-methylpyridin-3-yl]pyrazole-4-carbonyl]-5-fluoro-1H-indol-6-yl]methanesulfonamide] | 0.032 | 0.084 | 0.0041 |
| Cc1cc(Oc2ccccc2F)ccc1-n1ncc(C(=O)c2cc3cc(F)c(NS(=O)(=O)C4CC4)cc3[nH]2)c1N [Example 4-2-040, N-[2-[5-amino-1-[4-(2-fluorophenoxy)-2-methylphenyl]pyrazole-4-carbonyl]-5-fluoro-1H-indol-6-yl]cyclopropanesulfonamide] | 0.024 | 0.042 | 0.0022 |
| Cc1cc(Oc2cccc(F)c2F)ccc1-n1ncc(C(=O)c2cc3cc(F)c(NS(=O)(=O)C4CC4)cc3[nH]2)c1N [Example 4-2-041, N-[2-[5-amino-1-[4-(2,3-difluorophenoxy)-2-methylphenyl]pyrazole-4-carbonyl]-5-fluoro-1H-indol-6-yl]cyclopropanesulfonamide] | 0.038 | 0.084 | 0.00079 |
| Cc1cc(Oc2ccccc2F)cc(C)c1-n1ncc(C(=O)c2cc3cc(F)c(NS(=O)(=O)C4CC4)cc3[nH]2)c1N [Example 4-2-042, N-[2-[5-amino-1-[4-(2-fluorophenoxy)-2,6-dimethylphenyl]pyrazole-4-carbonyl]-5-fluoro-1H-indol-6-yl]cyclopropanesulfonamide] | 0.37 | 0.84 | 0.032 |
| Cc1cc(Oc2ccccc2F)ncc1-n1ncc(C(=O)c2cc3cc(F)c(NS(=O)(=O)C4CC4)cc3[nH]2)c1N [Example 4-2-043, N-[2-[5-amino-1-[6-(2-fluorophenoxy)-4-methylpyridin-3-yl]pyrazole-4-carbonyl]-5-fluoro-1H-indol-6-yl]cyclopropanesulfonamide] | 0.028 | 0.087 | 0.0014 |
| Cc1cc(Oc2c(F)cccc2F)ncc1-n1ncc(C(=O)c2cc3cc(F)c(NS(=O)(=O)C4CC4)cc3[nH]2)c1N [Example 4-2-044, N-[2-[5-amino-1-[6-(2,6-difluorophenoxy)-4-methylpyridin-3-yl]pyrazole-4-carbonyl]-5-fluoro-1H-indol-6-yl]cyclopropanesulfonamide] | 0.032 | 0.16 | 0.007 |
| Cc1cc(Oc2cccc(F)c2F)ncc1-n1ncc(C(=O)c2cc3cc(F)c(NS(=O)(=O)C4CC4)cc3[nH]2)c1N [Example 4-2-045, N-[2-[5-amino-1-[6-(2,3-difluorophenoxy)-4-methylpyridin-3-yl]pyrazole-4-carbonyl]-5-fluoro-1H-indol-6-yl]cyclopropanesulfonamide] | 0.089 | 0.23 | 0.0049 |
| Cc1cc(Oc2c(F)cccc2Cl)ncc1-n1ncc(C(=O)c2cc3cc(F)c(NS(=O)(=O)C4CC4)cc3[nH]2)c1N [Example 4-2-046, N-[2-[5-amino-1-[6-(2-chloro-6-fluorophenoxy)-4-methylpyridin-3-yl]pyrazole-4-carbonyl]-5-fluoro-1H-indol-6-yl]cyclopropanesulfonamide] | 0.048 | 0.23 | 0.012 |
| Cc1ccccc1Oc1cc(C)c(-n2ncc(C(=O)c3cc4cc(F)c(NS(=O)(=O)C5CC5)cc4[nH]3)c2N)cn1 [Example 4-2-047, N-[2-[5-amino-1-[4-methyl-6-(2-methylphenoxy)pyridin-3-yl]pyrazole-4-carbonyl]-5-fluoro-1H-indol-6-yl]cyclopropanesulfonamide] | 0.064 | 0.079 | 0.0045 |
| Cc1cc(Oc2cccc(F)c2)ncc1-n1ncc(C(=O)c2cc3cc(F)c(NS(=O)(=O)C4CC4)cc3[nH]2)c1N [Example 4-2-048, N-[2-[5-amino-1-[6-(3-fluorophenoxy)-4-methylpyridin-3-yl]pyrazole-4-carbonyl]-5-fluoro-1H-indol-6-yl]cyclopropanesulfonamide] | 0.079 | 0.29 | 0.012 |
| Cc1cc2[nH]c(C(=O)c3cnn(-c4ccc(Oc5ccccc5F)cc4C)c3N)cc2cc1NS(C)(=O)=O [Example 4-2-049, N-[2-[5-amino-1-[4-(2-fluorophenoxy)-2-methylphenyl]pyrazole-4-carbonyl]-6-methyl-1H-indol-5-yl]methanesulfonamide] | 0.0017 | 0.0019 | 0.00029 |
| Cc1cc2[nH]c(C(=O)c3cnn(-c4ccc(Oc5cccc(F)c5F)cc4C)c3N)cc2cc1NS(C)(=O)=O [Example 4-2-050, N-[2-[5-amino-1-[4-(2,3-difluorophenoxy)-2-methylphenyl]pyrazole-4-carbonyl]-6-methyl-1H-indol-5-yl]methanesulfonamide] | 0.0017 | 0.007 | 0.0002 |
| Cc1cc2[nH]c(C(=O)c3cnn(-c4c(C)cc(Oc5ccccc5F)cc4F)c3N)cc2cc1NS(C)(=O)=O [Example 4-2-051, N-[2-[5-amino-1-[2-fluoro-4-(2-fluorophenoxy)-6-methylphenyl]pyrazole-4-carbonyl]-6-methyl-1H-indol-5-yl]methanesulfonamide] | 0.0012 | 0.0038 | 0.00059 |
| Cc1cc2[nH]c(C(=O)c3cnn(-c4cnc(Oc5ccccc5F)cc4C)c3N)cc2cc1NS(C)(=O)=O [Example 4-2-052, N-[2-[5-amino-1-[6-(2-fluorophenoxy)-4-methylpyridin-3-yl]pyrazole-4-carbonyl]-6-methyl-1H-indol-5-yl]methanesulfonamide] | 0.00097 | 0.0052 | 0.00044 |
| Cc1cc2cc(C(=O)c3cnn(-c4ccc(Oc5ccccc5F)cc4C)c3N)[nH]c2cc1NS(C)(=O)=O [Example 4-2-053, N-[2-[5-amino-1-[4-(2-fluorophenoxy)-2-methylphenyl]pyrazole-4-carbonyl]-5-methyl-1H-indol-6-yl]methanesulfonamide] | 0.0051 | 0.019 | 0.00034 |
| Cc1cc2cc(C(=O)c3cnn(-c4ccc(Oc5cccc(F)c5F)cc4C)c3N)[nH]c2cc1NS(C)(=O)=O [Example 4-2-054, N-[2-[5-amino-1-[4-(2,3-difluorophenoxy)-2-methylphenyl]pyrazole-4-carbonyl]-5-methyl-1H-indol-6-yl]methanesulfonamide] | 0.015 | 0.062 | 0.0015 |
| Cc1cc2cc(C(=O)c3cnn(-c4c(C)cc(Oc5ccccc5F)cc4F)c3N)[nH]c2cc1NS(C)(=O)=O [Example 4-2-055, N-[2-[5-amino-1-[2-fluoro-4-(2-fluorophenoxy)-6-methylphenyl]pyrazole-4-carbonyl]-5-methyl-1H-indol-6-yl]methanesulfonamide] | 0.026 | 0.065 | 0.003 |
| Cc1cc2cc(C(=O)c3cnn(-c4c(C)cc(Oc5cccc(F)c5F)cc4F)c3N)[nH]c2cc1NS(C)(=O)=O [Example 4-2-056, N-[2-[5-amino-1-[4-(2,3-difluorophenoxy)-2-fluoro-6-methylphenyl]pyrazole-4-carbonyl]-5-methyl-1H-indol-6-yl]methanesulfonamide] | 0.024 | 0.097 | 0.0039 |
| Cc1cc2cc(C(=O)c3cnn(-c4c(C)cc(Oc5cc(F)ccc5F)cc4F)c3N)[nH]c2cc1NS(C)(=O)=O [Example 4-2-057, N-[2-[5-amino-1-[4-(2,5-difluorophenoxy)-2-fluoro-6-methylphenyl]pyrazole-4-carbonyl]-5-methyl-1H-indol-6-yl]methanesulfonamide] | 0.027 | 0.14 | 0.0043 |
| Cc1cc2cc(C(=O)c3cnn(-c4c(C)cc(Oc5ccccc5Cl)cc4F)c3N)[nH]c2cc1NS(C)(=O)=O [Example 4-2-058, N-[2-[5-amino-1-[4-(2-chlorophenoxy)-2-fluoro-6-methylphenyl]pyrazole-4-carbonyl]-5-methyl-1H-indol-6-yl]methanesulfonamide] | 0.069 | 0.18 | 0.004 |
| Cc1cc2cc(C(=O)c3cnn(-c4c(C)cc(Oc5cccc(Cl)c5)cc4F)c3N)[nH]c2cc1NS(C)(=O)=O [Example 4-2-059, N-[2-[5-amino-1-[4-(3-chlorophenoxy)-2-fluoro-6-methylphenyl]pyrazole-4-carbonyl]-5-methyl-1H-indol-6-yl]methanesulfonamide] | 0.11 | 0.39 | 0.0077 |
| Cc1cc2cc(C(=O)c3cnn(-c4c(C)cc(Oc5ccccc5)cc4F)c3N)[nH]c2cc1NS(C)(=O)=O [Example 4-2-060, N-[2-[5-amino-1-(2-fluoro-6-methyl-4-phenoxyphenyl)pyrazole-4-carbonyl]-5-methyl-1H-indol-6-yl]methanesulfonamide] | 0.015 | 0.058 | 0.002 |

From patent publication US10479780B2, “Aminopyrazole derivatives” (Chugai Seiyaku Kabushiki Kaisha, priority 2015, dated 2019)
